Consider 1 compound from US20130130306A1, “ZN (II) BASED COLORIMETRIC SENSOR AND PROCESS FOR THE PREPARATION THEREOF” (COUNCIL OF SCIENTIFIC & INDUSTRIAL RESEARCH, priority 2010, published 2013).

The data set concerns Yeast cells (Saccharomyces cerevisiae). In words: Staining of Yeast cells, light microscopy and SEM. The format is cell-based. Here is the method:
The isolates of Saccharomyces sp. were cultured in GYE (glucose yeast extract agar) media, Bacillus sp. in Nutrient broth, and Pseudomonas sp. in King's B medium for 24 hour at 37° C. […] of this was taken and was allowed to incubate at 30 to 40° C. along with 100 μl of L.Zn (Scheme 1, Formula 1A) (1.16×10^−4 M) solution. The samples were fixed overnight at room temperature 25-30° C. with 2% (v/v) glutaraldehyde in 0.1 M phosphate buffer at pH 7.5. The samples were then washed with 0.1 M phosphate buffer (pH 7.5) at room temperature 25-30° C. for 1 hour. Post-fixation was carried out in 2% (w/v) osmium tetroxide (OsO4) in the same buffer and was washed once with 0.1 M phosphate buffer for 20 minutes. Then, the water was removed by a graded water-ethanol series; 25% ethanol for 15 min, 50% ethanol for 15 min, 75% ethanol for 30 min, 90% ethanol for 60 min, absolute alcohol for 30 min. The specimens were rinsed in buffer and coated with gold in a sputter coater (Polaron SC7620) prior to microscopy. The material was examined in a Scanning Electron Microscope (SEM) LEO 1430 VP at an accelerating Voltage of 15 kV.
The isolates of Saccharomyces sp. were cultured in GYE (glucose yeast extract agar) media, Bacillus sp. in Nutrient broth, and Pseudomonas sp. in King's B medium for 24 hour at 37° C. 1001 of this was taken and was allowed to incubate at room temperature along with 1001 of [L.Zn]=1.16×10^−4M solution (pH 7.2, 10 mM HEPES buffer solution). The samples were fixed overnight at 25 to 35° C. with 2% (v/v) glutaraldehyde in 0.1 M phosphate buffer at pH 7.5. The samples were then; washed with 0.1 M phosphate buffer (pH 7.5) at 25 to 35° C. for 1 hour. Post-fixation was carried out in 2% (w/v) osmium tetroxide (OsO4) in the same buffer and was washed once with 0.1 M phosphate buffer for 20 minutes. Then, the water was removed by a graded water-ethanol series; 25% ethanol for 15 min, 50% ethanol for 15 min, 75% ethanol for 30 min, 90% ethanol for 60 min, absolute alcohol for 30 min. The specimens were rinsed in buffer and coated with gold in a sputter coater (Polaron SC7620) prior to microscopy. The material was examined in a scanning electron microscope (SEM) LEO 1430 VP at an accelerating Voltage of 15 kV.
We have therefore, been able to use the receptor molecule, L.Zn (Scheme 1, Formula 1A) for staining Eukaryotic cells. Yeast cells were exposed to the receptor molecule L.Zn (Scheme 1, Formula 1A) (1.16×10^−4 M) for 20 min or L.Zn-CD (Scheme 2) (([L.Zn]=0.5×10^−3 M [α-CD]=2.92×10^−3 M) for 2 min followed by subsequent washing with water mixtures and then viewed under a light microscope (AXIO IMAGER-Carl Zeiss).
Ethanol is known to act as a dehydrator and a good fixative of biological samples. […] This confirms the binding of the ATP ions of the cell surface to L.Zn (Scheme 1, Formula 1A) as the plausible reason for the observed staining. […] This observation could be explained on the basis of the reversible binding of ATP, produced in situ in the Yeast cells.

Turning to `CN(C)c1ccc(N=Nc2ccc(S(=O)(=O)N3CCCNCCNCCCNCC3)cc2)cc1.O=[N+]([O-])[O-].O=[N+]([O-])[O-].[Zn+2]` [L.Zn], where the note is “L.Zn 0.116 mM, light microscopy”, the “color of Yeast cells after treatment” value is on record as “pink-violet”. For the setting “Saccharamyces species in GYE media, sensor 1.0×10^−4 M, 25° C., 10 mins”, the “growth of colonies streaked on nutrient agar plates after incubation with sensor” value is “colonies of the test microbes grew”. In addition, the “control experiments: change in color of Yeast cells” value (control treatment of cells) was “no such change in color was observed”. The “destaining of stained Yeast cells by citrate (reversible binding)” value (excess (50 mole equivalent) of citrate ion) is on record as “became colorless”. The “stability of staining after washing” value (washing with water/ethanol (70/30, v/v)) is “stable”.
